Measured values reported in patent US12551482B2, “Aurora kinase inhibitors” (The Regents of the University of California, priority 2013, dated 2026).

Assays:
SNU-423 = test: Cancer cell line profiling, Genomics of Drug Sensitivity Project; conditions: Homo sapiens, SNU-423, read-out: CD532 EC50 (uM)
SCC-4 = test: as above; conditions: Homo sapiens, SCC-4, read-out: CD532 EC50 (uM)

Compound `O=C(Nc1ccc(Nc2nccc(Nc3cc(C4CCCC4)[nH]n3)n2)cc1)Nc1cccc(C(F)(F)F)c1` [CD532, 1-(4-((4-((5-cyclopentyl-1H-pyrazol-3-yl)amino)pyrimidin-2-yl)amino)phenyl)-3-(3-(trifluoromethyl)phenyl)urea] has an EC50 (SNU-423) of 0.753 µM and an EC50 (SCC-4) of 0.884 µM.
